According to patent US20220281902A1, “MIT[…] IMPROVE METABOLIC SYNDROME DURING AGING” (The Board of Trustees of the Leland Stanford Junior …, priority 2019, published 2022):
Marks after values point to notes of the source that are not given here.

Columns and labels:
[1] = Body weight variations on chow diet; type: in vivo, C57BL/6 mice; details: for body weight lighter than controls: male mice
Experimental: Animal experimentation. […] Ltd) were group-housed in a barrier facility with 12-hr light/12-hr dark cycles. All mice received a regular chow diet ad libitum (PicoLab 5053 Rodent Diet 20; Lab Diets) except for HFD (40-60%) and CR models. The compound was then administered in drinking water ad libitum at either 90-100 or 100-120 mg/kg/day, based on the previously measured water consumption.
(§1) The C57BL/6 mice were maintained on a standard purified mouse diet (PicoLab 5053 Rodent Diet 20; Lab Diets) until they reached 2 months of age when the treatments started. The CR animals were subjected to a lifelong restriction on PicoLab 5053 Rodent Diet 20; Lab Diets, starting at 12 weeks of age, with a daily food allotment of 60% of that eaten by the ad lib animals. Besides CR animals, the C57BL/6 groups in this study were fed the standard high fat diet (HFD; 60 or 40% fat). Body weights were measured weekly at the same time each week. Food and water intake were measured once every month for 3-6 consecutive days at the same time each month. Water consumption was measured for 2 weeks prior to the start of administration. Compound was generated and modified for better permeability in to mitochondria, evaluated by HPLC, was 96%-97%. The administration began at 8 weeks of age and continued for 16 months, until they became 18-month-old. The drug solution was prepared weekly in small batches by dissolving the compound into autoclaved water at the respective doses and filtering sterilely. Aliquots were collected from each batch and measured by HPLC to confirm stability of the compound. Water bottles and cages were changed twice weekly. Fed and fasted blood samples were collected monthly at the same time each month from tail and used for glucose, insulin, blood cell counts, lipid analysis using assay kits (Robio, China) and HbA1C assay kit (Crystal chem, USA) following the manufacturer protocol. IPGTTs and ITTs were conducted throughout morning and early afternoon after fasting for 16-18 hrs. and 4 hrs., respectively, once before start of treatment administration began and every 3 months thereafter. Rectal body temperature was measured monthly, as described previously. Whole blood samples, and histopathology were analyzed after 14 months of treatment. Tissue samples were collected after 10-14 months from mice, sacrificed and used for WB and qPCR microarray, and other analyses. All animal studies were approved by the Shanghai Jiao Tong University Animal Studies Committee and were in accordance with NIH guidelines. (Number of mice; SD=30, HFD=10, CR=20).

[2] = Single IP injection, body temperature and clinical pathology; type: in vivo, C57BL/6 mice; details: Day 4
Experimental: Body temperature integration in mouse. Three groups of male C57BL/6 mice received a single injection of the inhibitor at dose-levels of 0 (vehicle=N/S), average μM and max μM and were then kept for an 80 minute observation period until the BT was stabilized. Treatment was performed as a slow injection, IP, under a dosage volume of 0.5 mL/kg.
Rectal temperature was measured using a conventional thermometer in all groups at 0, 10, 15, 20, 30, 40, 50, 60, 70 and 80 minutes and repeated three times in 3 days.

mature 3T3-L1 cells = test: 2-NBDG glucose uptake in matured adipocytes; type: cell-based; details: highest concentration 50 μg/mL, vs insulin (control) and Rosiglitazone
Experimental: Second, adipocytes are the main site of insulin action and, thereby, play an important role in glucose metabolism as well as in the regulation of body glucose homeostasis. Therefore, the glucose uptake tests were evaluated on matured adipocytes to stimulate 2-NBDG (glucose) in the absence and presence of insulin and Rosiglitazone (insulin-sensitizer) and the higher insulin sensitivity was verified after treatment by the inhibitor.

[3] = Serum biomarkers in treated mice; type: in vivo, C57BL/6 mice; details: 100 mg/Kg per day
From the text: as §1

visceral fat adipocytes = test: Histological analysis of white adipocyte size in visceral fat (toluidine blue O); type: in vivo, mouse
Experimental: Fluorescent microscopy. Adipose tissue was harvested and fixed in 4% paraformaldehyde (SigmaP6148). Adipocyte size was measured by staining for toluidine blue O in 5-20 μm-thick sections, paraffin embedded (Cell Signalling Technology, Tissue-Tek O.C.T.). adipocyte differentiations assessed by Oil Red 0 staining.

Cc1ncsc1CCOC(=O)C[P+](c1ccccc1)(c1ccccc1)c1ccccc1.[Br-] [HG1a-1, (2-(2-(4-Methylthiazol-5-yl)Ethoxy)-2-Oxoethyl) Triphenylphosphonium Bromide]
body weight decrease vs controls ([1]; female mice, by 9 months): 26% | body weight less than controls ([1]; female mice, end of 5 months): 12% | body weight lighter than controls ([1]; after 14 months treatment): 25% | body weight lighter than controls ([1]; end of 5 months): 18% | clinical pathology (physicals) 24 h after treatment [2]: within the normal baseline range | 2-NBDG uptake (mature 3T3-L1 cells): notably higher | glycated hemoglobin (Hb1Ac) levels vs control and calorie restriction ([3]; 12 months continuous treatment): lower | Cholesterol ([3]; serum, treated mice): 6.3 ± 0.9 mM/L | Glucose-fasted ([3]; serum, treated mice): 4.4 ± 0.2 mM | Glucose-fed ([3]; serum, treated mice): 6.5 ± 0.3 mM | Insulin ([3]; serum, treated mice): 2.34 ± 0.5 µg/L | Total protein ([3]; serum, treated mice): 5.89 ± 0.32 g dl^□−1 | Triglycerides ([3]; serum, treated mice): 1.00 ± 1*^ mM/L | % HbA1c ([3]; treated mice): 5.5 ± 0.5 % | visceral fat adipocyte size and cell perimeter (visceral fat adipocytes; 5 month old treated mice): minor changes | adipocyte shrinkage in size and perimeter compared to control (visceral fat adipocytes; 12 month old treated mice): 3 fold
